The values that follow come from patent US12433872B2, “Treatment of Acanthamoeba or Balamuthia trophozoites and/or cysts” (GEORGIA STATE UNIVERSITY RESEARCH FOUNDATION, INC., priority 2018, dated 2025).

The test system of assay [1] is B. mandrillaris. The following applies: previous in vitro testing, cited from earlier work; for effect against B. mandrillaris: in words.
For assay [2], the system named is Acanthamoeba castellanii trophozoites. The assay can be described thus: Activity against Acanthamoeba castellanii trophozoites. Format: cell-based.
The test system of assay [3] is A549 cells. The assay can be described thus: Toxicity to human A549 cells. Format: cell-based.
Assay [4] relates to Acanthamoeba castellanii (ATCC50370) cysts. The assay can be described thus: Encystation drug susceptibility / excystation viability assay, 30 day recovery, A. castellanii cysts. It is filed as cell-based. Conditions: ATCC50370, 720 h, read-out: A. castellanii 30 day MCC. As for the experimental part: (§1) The trophozoites of Acanthamoeba were harvested by mechanical detachment and collected via centrifugation at 4000 rpm at 4° C. for 5 minutes. The trophozoites were washed in 10 mL of Neff's Encystment Media (NEM). NEM composition is 20 mM Tris-HCL [pH 8.8] (2.43 g/L), 100 mM KCL (7.46 g/L), 8 mM MgSO4 (962.96 mg/L), 0.4 mM CaCL2 58.81 mg/L) and 1 mM NaHCO3 (84.01 mg/L) (Neff et al. 1964). All reagents were bought from Sigma Aldrich. Centrifugation of the trophozoites was repeated to ensure any residual growth medium was removed. The pellet was resuspended in a final volume of 15 mL of NEM, cultured in 75 cm^2 corning tissue culture flasks and incubated vertically in a thermal shaker, shaken at 100 rpm at 37° C. for 72 hours to produce fully matured cysts. NEM was supplemented with 250 μg of penicillin/streptomycin. Fresh cysts were produced each time for any experimentation.
(§2) At 72 hours the cysts were harvested using a cell scraper and collected via centrifugation at 4000 rpm at 25° C. for 10 minutes. The cells were washed twice in 10 mL of HyClone™ water, Molecular Biology Grade, and centrifugation was repeated to ensure the removal of any residual NEM. The cell suspension was washed with 0.5% sodium dodecyl sulphate (SDS) to remove any remaining trophozoites and immature cysts. The fully mature cysts were further washed twice with 10 mL of HyClone™ water and 1% NEM, centrifugation was repeated to remove any residue of SDS. The concentration of mature cysts was determined using a haemocytometer and adjusted to 1×10^4 cysts/mL in NEM.
(§3) All test compounds were prepared as 5 mg/mL stock solutions in dimethylsulfoxide (DMSO). All compounds were diluted in NEM, serially diluted in 2-fold dilutions 6 or 11 times, yielding a screening concentration range of 1.56 μg/mL to 50 μg/mL or 48 ng/mL to 50 μg/mL with a final highest screening concentration of 1% DMSO.
(§4) Based on this, a strain specific test period and also a 30 day non-specific recovery time were considered. For the 30 day recovery period, the media was changed 5 times to ensure the contents of wells dis not evaporate and have an effect within the results of the assay.
(§5) 90 μL of 1×10^4 Cysts/ml and 10 μL of experimental compounds from the screening plates were produced according to the protocols above and combined into a Corning clear 96 well treated tissue culture plate. Control wells include cysts in non-drug treated, 1% DMSO, NEM (to be used for negative growth control), NEM Blank, PG blank and cysts in non-drug treated, 1% DMSO, PG (to excyst cells and to be used for positive growth control). The total well volume for all wells was 100 μL. The drug exposed plates were screened at 27° C. for 6 or 24 hours only. At the exposure time point the plates were centrifuged at 4000 rpm at 25° C. for 10 minutes and washed twice with phosphate-buffered saline (PBS) to remove any residual experimental compound.
(§6) Once the plate(s) underwent the Encystation drug susceptibility process, all wells except the negative growth control and NEM blank wells received PG growth medium. All plates were left to recover at 27° C. for the strain specific time period of 5, 9 or 11 days depending on the species of Acanthamoeba. At each of the strain specific time points the plates were removed from incubation and microscopically analysed (qualitatively) for the excystation process for the emergence of excysted viable trophozoites or residual cysts. The presence of excysted trophozoites indicated viable amoebae (non-cystistatic or cysticidal—no effect) and the absence of excystation was considered as cystistatic/cysticidal effects.

Assay [5] concerns Acanthamoeba healyi cysts. The assay can be described thus: Encystation drug susceptibility / excystation viability assay, 30 day recovery, A. healyi cysts. Conditions: 720 h, read-out: A. healyi 30 day MCC. It is filed as cell-based. The method, then:
as §1, §2, §3, §4, §5, §6

In assay [6] the test system is Acanthamoeba culbertsoni (ATCC30171) cysts. The assay can be described thus: Encystation drug susceptibility / excystation viability assay, 30 day recovery, A. culbertsoni cysts. Format: cell-based. The following applies: ATCC30171, 720 h, read-out: A. culbertsoni 30 day MCC. The method, then:
as §1, §2, §3, §4, §5, §6

For assay [7], the system named is Acanthamoeba cysts. The assay can be described thus: 30 day cysticidal studies, species not given. It is filed as cell-based. The method, then: As cells were removed during the 5× media changes for the 30 day time point at concentrations of drugs that allowed excystation, only qualitative, microscopic analysis was performed.
For assay [8], the system named is Balamuthia mandrillaris trophozoites. The assay can be described thus: Activity against Balamuthia mandrillaris trophozoites. Format: cell-based. The following applies: for IC50: Balamuthia mandrillaris. As for the experimental part: Balamuthia mandrillaris trophozoites were thawed and grown in 10 ml of BM-3 medium. […] After autoclaving, complete BM-3 media was produced by the addition of 10% fetal bovine serum and 125 μg of penicillin/streptomycin antibiotics. The table describes all of the compounds and the activity against Balamuthia trophozoites compared to the activity for select Acanthamoeba trophozoites shown in Table 5.

The mark [9] stands for this setting: read-out: A. cactellanii Trophozoite IC50.
[10] abbreviates: human A549 cells, read-out: A549 cell IC50.
Setting [11] is: minimum cysticidal concentration, no recovery up to 30 days.
[12] abbreviates: read-out: Acanthamoeba castellanii IC50.
Where [13] appears, read: Homo sapiens, A549, read-out: A549 cell IC50.
Setting [14] is: read-out: Balamuthia mandrillaris IC50.
[15] abbreviates: trophozoites, n = 2, Table 6, read-out: Acanthamoeba castellanii IC50.
The mark [16] stands for this setting: trophozoites, n = 2, read-out: Balamuthia mandrillaris IC50.

Molecules are shown by their SMILES. Counter-ions that a name gives are not always drawn. Like-named read-outs stand apart in the source and are kept apart here.

Regarding `CC[C@H]1OC(=O)[C@H](C)[C@@H](O[C@H]2C[C@@](C)(OC)[C@@H](O)[C@H](C)O2)[C@H](C)[C@@H](O[C@@H]2O[C@H](C)C[C@H](N(C)C)[C@H]2O)[C@](C)(O)C[C@@H](C)CN(C)[C@H](C)[C@@H](O)[C@]1(C)O` [azithromycin], in assay [1], the “effect against B. mandrillaris” value was “no effect”.

For the compound `C[C@@H]1[C@H](O)[C@@H](C)/C=C/C=C/C=C/C=C/C=C/C=C/C=C/[C@H](O[C@@H]2O[C@H](C)[C@@H](O)[C@H](N)[C@@H]2O)C[C@@H]2O[C@](O)(C[C@@H](O)C[C@@H](O)[C@H](O)CC[C@@H](O)C[C@@H](O)CC(=O)O[C@H]1C)C[C@H](O)[C@H]2C(=O)O` [amphotericin B], the “effect against B. mandrillaris” value in assay [1] is recorded as “marginal effects”.

A word on the IC50: it is the point on the concentration scale where inhibition reaches its midpoint. As to `CCCCC(CC)CNC(=N)NC(=N)NCCCCCCNC(=N)NC(=N)NCC(CC)CCCC` (stereo not drawn) [Alexidine HCL, alexidine, reference compound], the IC50 came to 1710 nM in assay [2] (setting [9]) and 1580 nM in assay [3] (setting [10]). The MCC in assay [4] (setting [11]), in assay [5] (setting [11]) and in assay [6] (setting [11]) was 5.37 µM in each case. Further, in assay [7] (in words), the “cysticidal activity over 30 day period” value is reported as “shows cysticidal activity”. Moreover, the “selectivity index (SI)” value in assay [7] (text b496, A549 IC50 versus 30 day MCC) is recorded as 0.29.

On to `CC(C)NC(=N)c1ccc2nc(-c3cc(F)c(Oc4ccc(-c5nc6ccc(C(=N)NC(C)C)cc6[nH]5)c(F)c4)c(F)c3)[nH]c2c1` [Compound C, 2-(3,5-Difluoro-4-(3-fluoro-4-(6-(N-isopropylcarbamimidoyl)-1H-benzo[d]imidazol-2-yl)phenoxy)phenyl)-N-isopropyl-1H-benzo[d]imidazole-6-carboximidamide], for which the IC50 in assay [2] (setting [9]) was found to be 1220 nM; in assay [2] (setting [12]) it was 1220 nM; in assay [3] (setting [13]) it was 34800 nM; in assay [8] (setting [14]), 490 nM. In addition, the MCC in assay [4] came out at 23.1 µM; in assay [5] it was 23.1 µM; in assay [6], 11.6 µM.

As for `CC(C)NC(=N)c1ccc2nc(-c3ccc(Oc4ccc(-c5nc6ccc(C(=N)NC(C)C)cc6[nH]5)cc4F)cc3)[nH]c2c1` [Compound I, 2-(3-Fluoro-4-(4-(6-(N-isopropylcarbamimidoyl)-1H-benzo[d]imidazol-2-yl)phenoxy)phenyl)-N-isopropyl-1H-benzo[d]imidazole-6-carboximidamide], the concentration for half-maximal inhibition (IC50) in assay [2] (setting [15]) turned out to be 710 nM; in assay [3] (setting [10]) it was 3460 nM; in assay [8] (read-out: IC50 against B. mandrillaris), 50 nM; in assay [8] (setting [16]), 50 nM. The MCC in assay [4] (setting [11]) was 4.2 µM; in assay [5] (setting [11]), 4.2 µM; in assay [6] (setting [11]), 8.41 µM. Also, the “times more potent than pentamide as reported in Schuster et al.” value in assay [8] (B. mandrillaris, versus pentamidine 29.38 μM) stood at 587.6.

As for `COc1cc(Oc2ccc(-c3nc4ccc(C(=N)NC(C)C)cc4[nH]3)c(Br)c2)ccc1-c1nc2ccc(C(=N)NC(C)C)cc2[nH]1` [N, 2-(2-Bromo-4-(4-(6-(N-isopropylcarbamimidoyl)-1H-benzo[d]imidazol-2-yl)-3-methoxyphenoxy)phenyl)-N-isopropyl-1H-benzo[d]imidazole-6-carboximidamide], the IC50 is 560 nM in assay [2] (setting [15]), 3920 nM in assay [3] (setting [10]) and 120 nM in assay [8] (setting [16]). The values for the MCC in assay [4] (setting [11]), in assay [5] (setting [11]) and in assay [6] (setting [11]) were 9.2 µM, 5.52 µM and 3.68 µM, respectively.

Regarding `CC(C)NC(=N)c1ccc2nc(-c3ccc(Oc4cc(F)c(-c5nc6ccc(C(=N)NC(C)C)cc6[nH]5)c(F)c4)cc3Br)[nH]c2c1` [Compound G, 2-(2-Bromo-4-(3,5-difluoro-4-(6-(N-isopropylcarbamimidoyl)-1H-benzo[d]imidazol-2-yl)phenoxy)phenyl)-N-isopropyl-1H-benzo[d]imidazole-6-carboximidamide], the IC50 is 260 nM in assay [2] (setting [9]), 260 nM in assay [2] (setting [12]), 6020 nM in assay [3] (setting [13]) and 110 nM in assay [8] (setting [14]). Moreover, the MCC in assay [4], in assay [5] and in assay [6] was 1.75 µM throughout.

With `N=C(N)c1ccc(OCCCCCOc2ccc(C(=N)N)cc2)cc1` [pentamidine], the “concentration at which most effective drug against B. mandrillaris” value in assay [1] (same value in μM) was 29.38 µM; in assay [1], 10 µg/mL.

Regarding `CC[C@H]1OC(=O)[C@H](C)[C@@H](O[C@H]2C[C@@](C)(OC)[C@@H](O)[C@H](C)O2)[C@H](C)[C@@H](O[C@@H]2O[C@H](C)C[C@H](N(C)C)[C@H]2O)[C@](C)(OC)C[C@@H](C)C(=O)[C@H](C)[C@@H](O)[C@]1(C)O` [clarithromycin], the “effect against B. mandrillaris” value in assay [1] is “no effect”.

With `COc1cc(Oc2ccc(-c3nc4ccc(C(=N)NC(C)C)cc4[nH]3)cc2F)ccc1-c1nc2ccc(C(=N)NC(C)C)cc2[nH]1` [K, 2-(3-Fluoro-4-(4-(6-(N-isopropylcarbamimidoyl)-1H-benzo[d]imidazol-2-yl)-3-methoxyphenoxy)phenyl)-N-isopropyl-1H-benzo[d]imidazole-6-carboximidamide], the IC50 in assay [2] (setting [15]) was 1100 nM; in assay [3] (setting [10]), 4030 nM; in assay [8] (setting [16]) it was 140 nM. Also, the MCC was 9.65 µM in assay [4] (setting [11]), 7.72 µM in assay [5] (setting [11]) and 7.89 µM in assay [6] (setting [11]).

Regarding `CC(C)NC(=N)c1ccc2nc(-c3ccc(Oc4ccc(-c5nc6ccc(C(=N)NC(C)C)cc6[nH]5)c(F)c4F)cc3Br)[nH]c2c1` [Compound H, 2-(2-Bromo-4-(2,3-difluoro-4-(6-(N-isopropylcarbamimidoyl)-1H-benzo[d]imidazol-2-yl)phenoxy)phenyl)-N-isopropyl-1H-benzo[d]imidazole-6-carboximidamide], the IC50 in assay [2] (setting [9]) came to 270 nM; in assay [2] (setting [12]), 270 nM; in assay [3] (setting [13]) it was 3110 nM; in assay [8] (setting [14]), 100 nM. Also, the MCC in assay [4], in assay [5] and in assay [6] was 1.88 µM throughout.

For the compound `CC(C)NC(=N)c1ccc2nc(-c3ccc(Oc4ccc(-c5nc6ccc(C(=N)NC(C)C)cc6[nH]5)c(Br)c4)cc3Br)[nH]c2c1` [Compound D, 2,2′-(Oxybis(2-bromo-4,1-phenylene))bis(N-isopropyl-1H-benzo[d]imidazole-6-carboximidamide)], the half-inhibitory concentration (IC50) amounted to 310 nM in assay [2] (setting [9]), 310 nM in assay [2] (setting [12]), 4170 nM in assay [3] (setting [13]) and 100 nM in assay [8] (setting [14]). Further, the MCC in assay [4] was found to be 3.4 µM; in assay [5], 3.4 µM; in assay [6], 1.27 µM.
